Read-outs that look alike come from different tables or passages of the source. Bounds are passed on as bounds.

The subject of one experiment is HCT116 cells. Description: HCT116 cell viability using CellTiter-Glo. The class given is cell-based. Particulars: read-out: 3-Day CTG IC50 in HCT116. The protocol: Example 108: Measurement of HCT116 Cell Viability Using CellTiter-Glo
HCT116 cells with the passage number ranging from 13 to 25 were plated in an opaque-walled 384 well plate (Corning, Cat. #3765, Corning, NY) at a density of 1000 cells/well in 50 μl medium containing McCoy's 5A medium (Cat. #16600082, ThermoFisher, Waltham, MA), 10% Fetal Bovine Serum (Cat. #26140, ThermoFisher, Waltham, MA) and 1% Pen-Strep (Cat. #. 15070063, ThermoFisher, Waltham, MA). After overnight incubation, cells were treated with various concentrations of compounds (0-10 μM) in DMSO (final concentration of 0.2% DMSO) for 72 h. CellTiter-Glo® Reagent (Cat. #G7573, Promega, Waltham, MA) was then added to all wells. The plates were placed on an orbital shaker to mix the content and induce cell lysis. The plates were then incubated at room temperature for 10 minutes to stabilize luminescent signal. The luminescence was recorded using Envision multilabel plate reader (Perkin-Elmers, Waltham, MA) and the data was fit by using Excel-fit (Microsoft, Redmond, WA).
In general terms: In ATP-based viability assays light output follows the ATP content of the culture.

The next experiment concerns the target DCAF15 (Homo sapiens, UniProt Q66K64). Description: Binary interaction between compounds and DCAF15, HTRF competition assay. It counts as binding. The note with it: HTRF competition with Alexa Fluor 647 tracer, His-tagged DCAF15 complex; read-out: DCAF15 IC50. A digest of the protocol: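 HTRF competition format: DCAF15 premixed 15 min at room temperature with anti-6His-Eu cryptate antibody, then combined with tracer and compound. Binding derived from ratiometric signal with titration curves; no-DCAF15 wells as controls.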
(In general: TR-FRET usually uses a lanthanide donor and a delayed reading to cut background.)

Experiment [1] deals with T1, DCAF15-RBM39 ternary complex (Homo sapiens, UniProt Q14498+Q66K64).
T1 construct: (RRM2)
T1 sequence (Q66K64 whole entry): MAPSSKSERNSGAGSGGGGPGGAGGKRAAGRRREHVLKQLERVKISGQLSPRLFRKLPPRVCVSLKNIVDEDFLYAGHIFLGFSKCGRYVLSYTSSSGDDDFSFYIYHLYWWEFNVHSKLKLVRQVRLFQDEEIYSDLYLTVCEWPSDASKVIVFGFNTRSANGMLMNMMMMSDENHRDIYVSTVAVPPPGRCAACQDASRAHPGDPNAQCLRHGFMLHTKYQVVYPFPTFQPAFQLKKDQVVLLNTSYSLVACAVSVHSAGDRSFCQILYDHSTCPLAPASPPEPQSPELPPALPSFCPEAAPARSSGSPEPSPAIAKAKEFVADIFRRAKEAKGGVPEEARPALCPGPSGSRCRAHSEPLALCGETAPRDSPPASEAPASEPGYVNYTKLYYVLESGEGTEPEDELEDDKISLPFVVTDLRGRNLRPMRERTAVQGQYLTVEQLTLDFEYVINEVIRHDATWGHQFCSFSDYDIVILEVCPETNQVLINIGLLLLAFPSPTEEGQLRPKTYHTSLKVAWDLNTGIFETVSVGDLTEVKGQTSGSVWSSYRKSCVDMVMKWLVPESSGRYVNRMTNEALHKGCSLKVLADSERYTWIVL
T1 sequence (Q14498 250-328 limits assumed): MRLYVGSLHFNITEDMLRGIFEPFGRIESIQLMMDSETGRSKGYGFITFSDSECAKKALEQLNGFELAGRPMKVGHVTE
T1 sequence (Q16531 whole entry partner): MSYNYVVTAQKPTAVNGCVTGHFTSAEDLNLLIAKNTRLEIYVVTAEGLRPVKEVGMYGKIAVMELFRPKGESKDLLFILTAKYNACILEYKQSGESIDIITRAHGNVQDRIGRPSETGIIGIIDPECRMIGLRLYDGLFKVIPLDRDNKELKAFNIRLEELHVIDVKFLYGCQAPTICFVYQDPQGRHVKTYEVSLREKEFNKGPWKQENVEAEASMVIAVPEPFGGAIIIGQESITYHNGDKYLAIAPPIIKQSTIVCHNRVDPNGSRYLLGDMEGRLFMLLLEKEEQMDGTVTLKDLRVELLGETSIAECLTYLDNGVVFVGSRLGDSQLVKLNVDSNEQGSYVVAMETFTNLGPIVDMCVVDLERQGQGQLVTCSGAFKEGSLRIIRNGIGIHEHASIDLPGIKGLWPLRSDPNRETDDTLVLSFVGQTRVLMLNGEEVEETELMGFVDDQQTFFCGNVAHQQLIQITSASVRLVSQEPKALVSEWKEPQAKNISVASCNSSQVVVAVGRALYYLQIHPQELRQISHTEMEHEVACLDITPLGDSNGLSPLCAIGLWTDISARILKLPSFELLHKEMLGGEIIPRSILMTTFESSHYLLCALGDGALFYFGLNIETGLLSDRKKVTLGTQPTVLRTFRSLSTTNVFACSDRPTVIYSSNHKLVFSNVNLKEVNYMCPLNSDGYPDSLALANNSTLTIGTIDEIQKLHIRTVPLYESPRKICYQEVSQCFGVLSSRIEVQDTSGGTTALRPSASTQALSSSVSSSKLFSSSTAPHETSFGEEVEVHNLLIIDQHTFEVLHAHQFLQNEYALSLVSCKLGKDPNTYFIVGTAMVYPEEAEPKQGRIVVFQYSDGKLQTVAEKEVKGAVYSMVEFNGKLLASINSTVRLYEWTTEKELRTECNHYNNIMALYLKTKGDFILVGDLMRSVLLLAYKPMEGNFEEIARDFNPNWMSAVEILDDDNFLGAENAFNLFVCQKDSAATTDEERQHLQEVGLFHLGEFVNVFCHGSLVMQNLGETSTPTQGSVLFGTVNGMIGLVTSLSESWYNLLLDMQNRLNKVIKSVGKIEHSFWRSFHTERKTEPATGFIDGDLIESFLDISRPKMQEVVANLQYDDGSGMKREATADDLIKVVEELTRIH
Description: Compound-induced DCAF15-RBM39 ternary complex formation, AlphaLISA. It counts as biochemical. Particulars: AlphaLISA, His-tagged DCAF15 complex and biotin-carrying RBM39; read-out: Ternary-RBM39 (RRM2) EC50. A digest of the protocol: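 Protein mixture incubated with compounds for one hour at room temperature; AlphaLISA beads then added sequentially, 1-2 h at room temperature after each. No-compound wells served as negative controls; His-tagged biotinylated GST tracked assay performance.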
(In general: Bead proximity is the source of the signal in Alpha formats.)

The target of another experiment is T2, RBM39 (Homo sapiens, UniProt Q14498+Q66K64).
T2 construct: endogenous in cells; host or cells: HCT116
Description: Western blot assay for degradation of RBM39 in HCT116 cells. Particulars: HCT116, 4 h. The class given is cell-based. The protocol: Example 107: Western Blot Assay Procedure for Assessing Degradation of RBM39 in HCT116 Cells
HCT116 cells were used with passage numbers ranging from 13 to 25. Cells were seeded in 12-well plated at a density of 1 million cells per well in 1 mL cell culture medium containing McCoy's 5A medium (Cat. #16600082, ThermoFisher, Waltham, MA), 10% Fetal Bovine Serum (Cat. #26140, ThermoFisher, Waltham, MA) and 1% Pen-Strep (Cat. #. 15070063, ThermoFisher, Waltham, MA) and incubated overnight. The next morning, compounds were serially diluted (1:3, 9 points) in the medium separately and were prepared 2× the final assay concentration. Subsequently, 1.0 mL medium containing DMSO or the appropriate concentration of each compound was added to respective wells. The final DMSO concentration in each well was 0.1%. […] Cells were then washed once with 1 mL of ice cold Dulbecco's phosphate-buffered saline (Cat. #28374, ThermoFisher, Waltham, MA) and then lysed with 100 μl of lysis buffer containing 1× RIPA (Cat. #. 89900, ThermoFisher, Waltham, MA) and HALT protease and phosphatase inhibitor (Cat. #78442, ThermoFisher, Waltham, MA) on ice for 10 minutes with intermittent rocking. Lysates were then sonicated in a sonication bath (3 pulses of 10 sec each with 1 min incubation on ice between each pulse). Samples were then centrifuged for 20 min at 14,000 rpm for 20 min. Supernatants were then transferred to fresh microfuge tubes and stored frozen at −80° C. until use. Total protein quantitation in lysate samples was done using the BCA protein quantitation kit following the manufacturer's instructions. For polyacrylamide gel electrophoresis, each sample ([…] total protein), was diluted with Laemmli sample buffer (Cat. #. 1610747, BioRad, Hercules, CA) by adding 9 ul of lysate to 3 ul of sample buffer containing 10% β-mercaptoethanol. Samples were then denatured at 95° C. for 5 minutes in a heat block, centrifuged at 14,000 rpm for 5 min, and placed on ice. Subsequently, 12 ul of each sample was loaded on 4-20% Tris/Glycine gels and electrophoresed in 1×Tris/Glycine SDS buffer at 80 (constant) volts for 2 h. Resolved samples were then transferred from gels to PVDF membrane using the BioRad Turbo-transfer unit with the Turbo default program (Cat. #. 1704150EDU, BioRad, Hercules, CA). For immunoblotting, membranes were first blocked for 1 hour at room temperature using Odyssey Blocking Buffer (Cat. #: 927-60001, Li-cor, Lincoln, NE) with continuous rocking. Membrane was then incubated with primary antibodies, anti-RBM39 (Sigma Cat. #: HPA001591, St. Louis, MO) and anti-β-actin (Cell Signaling Cat. #3700S, Danvers, MA), diluted 1000 fold each, at 4° C. for overnight. Subsequently, membrane was washed three times for at room temperature with continuous rocking (5 minutes each wash) using TBS buffer containing 0.1% Tween-20. After the final wash, secondary antibodies, IRDye 680 RD Goat anti Mouse IgG H+L (Cat. #: 926-68070, Li-cor, Lincoln, NE), and IRDye 800CW Goat anti Rabbit IgG H+L (Cat. #: 926-32211, Li-cor, Lincoln, NE), each diluted 10,000-fold, were added to the membranes and incubated at room temperature for 1 h with continuous rocking. Membranes were then washed 3 times with 1×TBS and scanned using Odessey CLx imaging system (Li-cor, Lincoln, NE) using default settings. Band intensity in images was quantified using the Image Studio Lite software (Version 5.2). Signal intensity for RBM-39 specific bands were normalized using the signal intensity for β-actin-specific band, and percent degradation was assessed by comparing RBM39 signal in compound-treated vs. DMSO-treated samples.

Where [2] appears, read: Homo sapiens, HCT-116, HCT116, 72 h.

Chain of DCAF15 (Q66K64 whole entry): as the sequence (Q66K64 whole entry) above
Chain of DCAF15 (Q16531 whole entry partner): as the sequence (Q16531 whole entry partner) above

On to `Cc1ccc(NS(=O)(=O)c2cc(F)cc(C#N)c2)c2[nH]cc(C(F)F)c12` [Compound 101, 3-cyano-N-(3-(difluoromethyl)-4-methyl-1H-indol-7-yl)-5-fluorobenzene sulfonamide], for which the figures for the IC50 in the experiment with HCT116 cells (setting [2]) and at DCAF15 were below 1000 nM and below 100000 nM, respectively. Besides, in experiment [1], the EC50 – broadly, the concentration at which the effect is half-maximal – is below 5000 nM.

Consider `Cc1ccc(NS(=O)(=O)c2cccc(-n3ccnn3)c2)c2[nH]cc(C#N)c12` [Compound 96, N-(3-cyano-4-methyl-1H-indol-7-yl)-3-(1H-1,2,3-triazol-1-yl)benzenesulfonamide], for which the IC50 – broadly, the concentration at which inhibition is half-maximal – at DCAF15 is below 20000 nM. The DC50 (commonly the concentration giving 50% degradation) on RBM39 is below 100 nM. Moreover, in experiment [1], the EC50 is below 1000 nM.

As for `COC(=O)CNS(=O)(=O)c1ccc(S(=O)(=O)Nc2ccc(Cl)c3c(Cl)c[nH]c23)cc1` [Compound 1, methyl ((4-(N-(3,4-dichloro-1H-indol-7-yl)sulfamoyl)phenyl)sulfonyl) glycinate], the results for the IC50 in the experiment on HCT116 cells (setting [2]) and on DCAF15 were below 1000 nM and below 100000 nM, respectively. Moreover, the DC50 on RBM39 was below 1000 nM. Also, in experiment [1], the EC50 is below 1000 nM.

As to `Nc1ccc(S(=O)(=O)Nc2cnc3c(Cl)cccc3n2)cc1` [CQS, cloroquinoxaline sulfonamide, reference compound], in the experiment on HCT116 cells (HCT116, 72 h), the IC50 is below 5000 nM. The molecule further came in with a DC50 at RBM39 below 100 nM. In addition, in experiment [1], the EC50 is below 5000 nM.

Regarding `Cc1ccc(NS(=O)(=O)c2ccc(-n3ccnn3)cc2)c2[nH]cc(C#N)c12` [Compound 95, N-(3-cyano-4-methyl-1H-indol-7-yl)-4-(1H-1,2,3-triazol-1-yl)benzenesulfonamide], the DC50 on RBM39 was below 100 nM. Also, in experiment [1], the EC50 is below 1000 nM.

Turning to `Cc1ccc(NS(=O)(=O)c2cccc(C#N)c2)c2[nH]cc(C#N)c12` [Compound E-7820, E-7820, reference compound], the IC50 in the experiment with HCT116 cells (setting [2]) was below 1000 nM.

With `NCCCCCCCNS(=O)(=O)c1ccc(S(=O)(=O)Nc2ccc(Cl)c3c(Cl)c[nH]c23)cc1` [Compound 8, N^1-(7-aminoheptyl)-N^4-(3,4-dichloro-1H-indol-7-yl)benzene-1,4-disulfonamide], on RBM39, the DC50 was below 1000 nM. For the same molecule, the EC50 in experiment [1] is below 1000 nM.

For `NS(=O)(=O)c1ccc(S(=O)(=O)Nc2cccc3c(Cl)c[nH]c23)cc1` [Indisulam, indisulam, reference compound], in the experiment on HCT116 cells (setting [2]), the IC50 is below 1000 nM. In addition, the EC50 in experiment [1] was below 1000 nM.

Regarding `COCCNS(=O)(=O)c1ccc(S(=O)(=O)Nc2ccc(Cl)c3c(Cl)c[nH]c23)cc1` [Compound 2, N^1-(3,4-dichloro-1H-indol-7-yl)-N^4-(2-methoxyethyl)benzene-1,4-disulfonamide], the IC50 with HCT116 cells (setting [2]) is below 1000 nM. Also, the EC50 in experiment [1] was below 1000 nM.

Turning to `Cc1ccc(NS(=O)(=O)c2cccc(C#N)c2)c2[nH]cc(C(F)F)c12` [Compound 100, 3-cyano-N-(3-(difluoromethyl)-4-methyl-1H-indol-7-yl)benzenesulfonamide], the IC50 in the experiment on HCT116 cells (setting [2]) was below 1000 nM. Moreover, the EC50 in experiment [1] was below 5000 nM.

With `O=S(=O)(Nc1ccc(Cl)c2c(Cl)c[nH]c12)c1ccc(S(=O)(=O)N2CCNCC2)cc1` [Compound 42, N-(3,4-dichloro-1H-indol-7-yl)-4-(piperazin-1-ylsulfonyl)benzenesulfonamide], in the experiment with HCT116 cells (setting [2]), the IC50 was below 100 nM. The same molecule registered a 50% degradation concentration (DC50) on RBM39 below 1000 nM. In experiment [1], the EC50 was below 1000 nM.

`N#Cc1cccc(S(=O)(=O)Nc2ccc(Cl)c3c(Cl)c[nH]c23)c1` [Compound 74, 3-cyano-N-(3,4-dichloro-1H-indol-7-yl)benzenesulfonamide] had a DC50 on RBM39 below 100 nM. Also, the EC50 in experiment [1] was below 1000 nM.

Regarding `CCc1nc(CN(C)S(=O)(=O)c2ccc(S(=O)(=O)Nc3ccc(Cl)c4c(Cl)c[nH]c34)cc2)no1` [Compound 20, N^1-(3,4-dichloro-1H-indol-7-yl)-N^4-((5-ethyl-1,2,4-oxadiazol-3-yl)methyl)-N4. methylbenzene-1,4-disulfonamide], the IC50 at DCAF15 was below 5000 nM. The EC50 in experiment [1] is below 5000 nM.

`Cc1ccnc(CNS(=O)(=O)c2ccc(S(=O)(=O)Nc3ccc(Cl)c4c(Cl)c[nH]c34)cc2)c1` [Compound 16, N^1-(3,4-dichloro-1H-indol-7-yl)-N^4-((4-methylpyridin-2-yl)methyl)benzene-1,4-disulfonamide]: the IC50 at DCAF15 is below 5000 nM. Besides, the EC50 in experiment [1] was below 20000 nM.

Turning to `O=S(=O)(Nc1ccc(Cl)c2c(Cl)c[nH]c12)c1ccc(S(=O)(=O)N2CCC(n3ccnn3)C2)cc1` (stereo not shown) [Compound 36, 4-((3-(1H-1,2,3-triazol-1-yl)pyrrolidin-1-yl)sulfonyl)-N-(3,4-dichloro-1H-indol-7-yl)benzenesulfonamide], the IC50 on DCAF15 is below 5000 nM. Also, in experiment [1], the EC50 was below 5000 nM.

As to `CC(C)C(=O)Nc1cccc(CNS(=O)(=O)c2ccc(S(=O)(=O)Nc3ccc(Cl)c4c(Cl)c[nH]c34)cc2)c1` [Compound 13, N-(3-(((4-(N-(3,4-dichloro-1H-indol-7-yl)sulfamoyl)phenyl)sulfonamido)methyl)phenyl) isobutyramide], the IC50 at DCAF15 was below 20000 nM. For the same molecule, the EC50 in experiment [1] is below 20000 nM.

Values taken from patent US20240190821A1, “SULFONAMIDE SUBSTITUTED N-(1H-INDOL-7-YL)BENZENESULFONAMIDES AND USES THEREOF” (Triana Biomedicines, Inc., priority 2021, published 2024).
